These results are taken from article PMC8435237, “Overexpressing the N‐terminus of CATALASE2 enhances plant jasmonic acid biosynthesis and resistance to necrotrophic pathogen Botrytis cinerea B05.10” (Molecular Plant Pathology, 2021).

One experiment concerns the target T1, ACX3 (Arabidopsis thaliana, UniProt P0CZ23).
T1 construct: pET28a (plasmid as in Yuan et al. 2017), purified from E. coli
T1 sequence (P0CZ23 35-675): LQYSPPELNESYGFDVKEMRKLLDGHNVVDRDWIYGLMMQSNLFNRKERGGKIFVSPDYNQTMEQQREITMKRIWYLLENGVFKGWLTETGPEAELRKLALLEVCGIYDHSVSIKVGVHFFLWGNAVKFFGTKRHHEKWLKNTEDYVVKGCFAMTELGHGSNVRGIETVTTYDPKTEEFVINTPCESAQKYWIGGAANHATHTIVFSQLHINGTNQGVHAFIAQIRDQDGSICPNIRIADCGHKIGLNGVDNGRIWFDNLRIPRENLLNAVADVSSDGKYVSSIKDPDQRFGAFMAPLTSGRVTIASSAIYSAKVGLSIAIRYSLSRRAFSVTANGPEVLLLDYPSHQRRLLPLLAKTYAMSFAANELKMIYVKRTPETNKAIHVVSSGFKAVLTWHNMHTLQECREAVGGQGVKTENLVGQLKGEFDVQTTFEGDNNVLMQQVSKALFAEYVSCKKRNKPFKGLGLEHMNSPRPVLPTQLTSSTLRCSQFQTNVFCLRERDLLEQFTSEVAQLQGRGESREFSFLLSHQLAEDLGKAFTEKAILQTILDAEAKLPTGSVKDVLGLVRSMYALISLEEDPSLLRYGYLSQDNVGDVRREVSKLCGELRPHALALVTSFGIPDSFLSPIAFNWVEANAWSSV
The experiment can be described thus: MALDI-TOF/TOF MS of substrate and product. It is filed as biochemical. The following applies: no CAT2; 50 mM KPO4 pH 7.6, 50 µM FAD, 100 µg/ml BSA, 25 °C, 30 min; product Δ2-OPC4-CoA.

For another experiment, the target named is T2, ACX2 (Arabidopsis thaliana, UniProt O65201).
T2 construct: pET28a (plasmid as in Yuan et al. 2017), purified from E. coli
T2 sequence (O65201 50-692): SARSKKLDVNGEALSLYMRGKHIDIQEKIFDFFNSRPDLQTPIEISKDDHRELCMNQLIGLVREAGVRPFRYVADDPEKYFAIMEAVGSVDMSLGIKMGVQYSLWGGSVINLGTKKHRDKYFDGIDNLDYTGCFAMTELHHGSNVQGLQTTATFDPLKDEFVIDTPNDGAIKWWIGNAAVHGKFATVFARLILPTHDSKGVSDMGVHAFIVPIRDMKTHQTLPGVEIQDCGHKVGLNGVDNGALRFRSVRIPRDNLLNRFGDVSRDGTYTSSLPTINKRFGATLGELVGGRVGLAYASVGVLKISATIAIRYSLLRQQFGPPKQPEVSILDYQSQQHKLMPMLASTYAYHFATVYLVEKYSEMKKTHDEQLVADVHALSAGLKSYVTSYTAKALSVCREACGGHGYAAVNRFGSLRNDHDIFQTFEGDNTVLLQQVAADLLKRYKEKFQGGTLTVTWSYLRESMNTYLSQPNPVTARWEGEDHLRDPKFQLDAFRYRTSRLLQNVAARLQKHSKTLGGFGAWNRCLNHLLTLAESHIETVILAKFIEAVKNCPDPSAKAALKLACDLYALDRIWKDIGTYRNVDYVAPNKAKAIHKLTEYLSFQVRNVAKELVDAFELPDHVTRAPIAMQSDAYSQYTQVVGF
Put plainly: MALDI-TOF/TOF MS of substrate and product. The class given is biochemical. The note with it: no CAT2; 50 mM KPO4 pH 7.6, 50 µM FAD, 100 µg/ml BSA, 25 °C, 30 min; product Δ2-OPC4-CoA.

Turning to `CC/C=C\C[C@@H]1C(=O)CC[C@@H]1CCCC(=O)SCCNC(=O)CCNC(=O)[C@H](O)C(C)(C)COP(=O)(O)OP(=O)(O)OC[C@H]1O[C@@H](n2cnc3c(N)ncnc32)[C@H](O)[C@@H]1OP(=O)(O)O` [OPC4‐CoA], the “MALDI-TOF/TOF MS of substrate and product” value at ACX3 was “The enzymatic activities of ACX2 and ACX3 were assessed with OPC4‐CoA as the substrate”; on ACX2 it was “The enzymatic activities of ACX2 and ACX3 were assessed with OPC4‐CoA as the substrate”.
